Source: patent US11214803B2, “Modulators of YAP1 expression” (Ionis Pharmaceuticals, Inc., priority 2019, dated 2022)
Strand notation (5' to 3'): a small letter for the sugar, then the base; units joined by * are phosphorothioate-linked, units joined directly phosphodiester-linked; [ ] holds rarer units or linkages, { } end groups; capitals alone tell only the bases. k = constrained ethyl (cEt); [5mC] = 5-methylcytosine; d = 2'-deoxy (DNA)

Test system: Yap1 mRNA
Assay: Dose-dependent inhibition of human Yap1 in A-431 cells (Example 8, 10,000 cells per well, RTS4814)
Type: cell-based
Conditions: free uptake, approximately 48 hours, RTS4814; for Yap1 mRNA, % UTC: A-431 cells, 10,000 cells per well; for IC50: A-431 cells, linear regression on log/linear plot
How it was run: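 A-431 cells (10,000/well) dosed with modified oligonucleotides by free uptake; Yap1 mRNA measured ~48 h later with primer-probe set RTS4814, normalized to total RNA (RIBOGREEN). Values are % of untreated control; IC50 from linear regression on log/linear plot.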

Row | Substance | Yap1 mRNA, % UTC (31.3 nM) | Yap1 mRNA, % UTC (125.0 nM) | Yap1 mRNA, % UTC (500.0 nM) | Yap1 mRNA, % UTC (2000.00 nM) | IC50
1 | 1076449 (k[5mC]*k[5mC]*kT*dT*dA*dT*dA*dA*dT*dG*d[5mC]*dA*dA*kT*k[5mC]*k[5mC]; antisense) [compound 1076449] | 44 % UTC | 8 % UTC | 3 % UTC | 2 % UTC | < 20 nM
2 | 1076458 (k[5mC]*kT*kT*dA*dA*dT*dT*dA*dG*d[5mC]*d[5mC]*dT*d[5mC]*kA*kG*kT; antisense) [compound 1076458] | 88 % UTC | 52 % UTC | 23 % UTC | 10 % UTC | 200 nM
3 | 1074626 (DNA k[5mC]*kT*kG*dT*dT*dA*dT*dG*dA*dA*d[5mC]*d[5mC]*d[5mC]*kT*kT*kG) [compound 1074626] | 54 % UTC | 18 % UTC | 8 % UTC | 5 % UTC | < 20 nM
4 | 1076260 (k[5mC]*kT*kT*dA*dA*dT*dT*dT*dA*dA*d[5mC]*dT*d[5mC]*k[5mC]*kT*kG; antisense) [compound 1076260] | 61 % UTC | 30 % UTC | 12 % UTC | 5 % UTC | 50 nM
5 | 1076427 (k[5mC]*kA*kA*dA*dT*dT*dT*dA*d[5mC]*dT*dG*dA*dT*k[5mC]*kT*k[5mC]; antisense) [compound 1076427] | 75 % UTC | 30 % UTC | 9 % UTC | 4 % UTC | 100 nM
6 | 1074629 (DNA kG*kA*kG*dA*dT*dT*dT*dT*dA*dT*dG*d[5mC]*d[5mC]*kT*kG*kT; antisense) [compound 1074629] | 21 % UTC | 5 % UTC | 3 % UTC | 3 % UTC | < 20 nM
7 | 1076299 (k[5mC]*kG*kT*dT*dA*dT*dA*dA*dA*dG*dA*d[5mC]*d[5mC]*k[5mC]*kA*kA; antisense) [compound 1076299] | 68 % UTC | 38 % UTC | 13 % UTC | 5 % UTC | 100 nM
8 | 1075111 (kT*kA*kG*dG*dA*dA*dT*dA*dT*dG*dG*dG*dT*kA*kG*kT; antisense) [compound 1075111] | 42 % UTC | 11 % UTC | 6 % UTC | 5 % UTC | < 20 nM
9 | 1075781 (k[5mC]*kA*kT*dA*dT*dA*dT*dT*dG*dT*dG*dA*d[5mC]*kT*kT*k[5mC]; antisense) [compound 1075781] | 52 % UTC | 15 % UTC | 4 % UTC | 3 % UTC | < 20 nM
10 | 1074313 (antisense kT*kG*kA*dT*dA*dT*dT*d[5mC]*d[5mC]*dG*d[5mC]*dA*dT*kT*kG*k[5mC]) [compound 1074313] | 56 % UTC | 21 % UTC | 9 % UTC | 5 % UTC | < 20 nM
11 | 1074628 (DNA kG*k[5mC]*k[5mC]*dT*dG*dT*dT*dA*dT*dG*dA*dA*d[5mC]*k[5mC]*k[5mC]*kT) [compound 1074628] | 29 % UTC | 13 % UTC | 7 % UTC | 6 % UTC | < 20 nM
12 | 1076003 (kA*kA*kT*dT*dT*dA*dA*dT*dG*dG*d[5mC]*dT*dT*kG*k[5mC]*kA; antisense) [compound 1076003] | 60 % UTC | 28 % UTC | 17 % UTC | 11 % UTC | 40 nM
13 | 1075876 (antisense kG*kT*kA*dT*dT*dT*dA*dT*dG*dA*dT*dG*dA*kT*kT*k[5mC]) [compound 1075876] | 47 % UTC | 20 % UTC | 7 % UTC | 5 % UTC | < 20 nM
14 | 1076293 (kG*k[5mC]*kT*dT*dA*dT*dT*dA*dT*dT*dG*dA*dG*kT*kT*kA; antisense) [compound 1076293] | 49 % UTC | 18 % UTC | 6 % UTC | 5 % UTC | < 20 nM
15 | 1075242 (k[5mC]*kA*kG*dG*dG*dA*dT*dA*dA*dT*dT*dA*d[5mC]*kT*kA*kA; antisense) [compound 1075242] | 71 % UTC | 39 % UTC | 18 % UTC | 12 % UTC | 100 nM
16 | 1074630 (antisense kA*kG*kA*dG*dA*dT*dT*dT*dT*dA*dT*dG*d[5mC]*k[5mC]*kT*kG) [compound 1074630] | 57 % UTC | 23 % UTC | 10 % UTC | 6 % UTC | < 20 nM

Row | Substance | Yap1 mRNA, % UTC (31.3 nM) | Yap1 mRNA, % UTC (125.0 nM) | Yap1 mRNA, % UTC (500.0 nM) | Yap1 mRNA, % UTC (2000.00 nM) | IC50
17 | 1074411 (kT*kG*kT*dG*dA*dA*dA*dG*dA*dG*dG*dT*d[5mC]*kA*kG*k[5mC]; antisense) [compound 1074411] | 47 % UTC | 20 % UTC | 8 % UTC | 6 % UTC | < 20 nM
18 | 1074851 (kA*kT*kT*dG*dT*dT*dA*dT*dG*dA*dT*dA*dG*kG*k[5mC]*kA; antisense) [compound 1074851] | 51 % UTC | 19 % UTC | 9 % UTC | 7 % UTC | < 20 nM
19 | 1075041 (antisense kG*kA*kT*dT*dA*dT*dA*dA*dA*dG*dA*dG*dG*k[5mC]*kT*k[5mC]) [compound 1075041] | 62 % UTC | 31 % UTC | 11 % UTC | 7 % UTC | 50 nM
20 | 1074565 (DNA kA*k[5mC]*kT*dG*dA*dA*dT*dT*d[5mC]*d[5mC]*dA*dA*dT*k[5mC]*kG*kA; antisense) [compound 1074565] | 47 % UTC | 20 % UTC | 9 % UTC | 6 % UTC | < 20 nM
21 | 1075112 (kA*kT*kA*dT*dA*dG*dG*dA*dA*dT*dA*dT*dG*kG*kG*kT; antisense) [compound 1075112] | 87 % UTC | 36 % UTC | 13 % UTC | 7 % UTC | 100 nM
22 | 1075749 (kA*kA*kT*dT*dA*dT*dG*dA*dA*dT*dG*dA*dT*kG*kG*kG; antisense) [compound 1075749] | 46 % UTC | 22 % UTC | 7 % UTC | 4 % UTC | < 20 nM
23 | 1076004 (kT*kA*kA*dT*dT*dT*dA*dA*dT*dG*dG*d[5mC]*dT*kT*kG*k[5mC]; antisense) [compound 1076004] | 27 % UTC | 7 % UTC | 3 % UTC | 2 % UTC | < 20 nM
24 | 1074245 (antisense kA*kG*kA*dA*dG*dT*dA*dT*d[5mC]*dT*d[5mC]*dT*dG*kA*k[5mC]*k[5mC]) [compound 1074245] | 47 % UTC | 21 % UTC | 8 % UTC | 5 % UTC | < 20 nM
25 | 1076393 (antisense k[5mC]*kT*kT*dT*dA*d[5mC]*dT*dT*dA*d[5mC]*dT*dG*dG*kT*kG*kG) [compound 1076393] | 54 % UTC | 20 % UTC | 8 % UTC | 5 % UTC | < 20 nM
26 | 1076491 (kA*kG*k[5mC]*d[5mC]*dA*dA*dA*dA*dT*dA*dG*dG*dT*kG*kA*kG; antisense) [compound 1076491] | 81 % UTC | 45 % UTC | 21 % UTC | 10 % UTC | 100 nM
27 | 1075233 (kG*kT*kA*dA*dT*dT*dT*dA*dT*d[5mC]*dA*dG*d[5mC]*k[5mC]*kA*kT; antisense) [compound 1075233] | 45 % UTC | 12 % UTC | 5 % UTC | 3 % UTC | < 20 nM
28 | 1074762 (kG*k[5mC]*kT*dA*d[5mC]*d[5mC]*d[5mC]*dA*dA*dT*dA*d[5mC]*dA*kA*k[5mC]*k[5mC]; antisense) [compound 1074762] | 74 % UTC | 32 % UTC | 14 % UTC | 8 % UTC | 100 nM
29 | 1075457 (antisense kA*kG*kT*dA*dA*dT*dA*dT*dG*dT*dA*d[5mC]*dA*kT*kG*kG) [compound 1075457] | 52 % UTC | 21 % UTC | 8 % UTC | 6 % UTC | < 20 nM
30 | 1074443 (kT*k[5mC]*kA*dG*dA*d[5mC]*d[5mC]*dA*dG*dT*dA*dA*dA*kT*k[5mC]*kA; antisense) [compound 1074443] | 69 % UTC | 35 % UTC | 14 % UTC | 8 % UTC | 100 nM
31 | 1076067 (kG*k[5mC]*kA*dT*dA*dT*dA*dA*dG*dA*dT*dG*dT*kT*kT*kG; antisense) [compound 1076067] | 45 % UTC | 13 % UTC | 5 % UTC | 4 % UTC | < 20 nM
